In PubChem BioAssay AID328 (DTP/NCI, 2004):
Values joined by “and” are separate entries in the source; they are usually repeats but may differ in a detail not shown here. Equal values may be shown once. Toxic doses and inconclusive results are not listed.

System: BDF1 mice, P388 leukemia ip, median survival T/C
Assay: NCI In Vivo Anticancer Drug Screen. Data for tumor model P388 Leukemia (intraperitoneal) in B6D2F1 (BDF1) mice
Details: endpoint: median survival time, higher = longer survival
Procedure, shortened: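 Vehicle-dosed animals serve as the reference; survival of compound-dosed, tumour-implanted mice is divided by it.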

[1] = dose: 100.0 mg/kg/injection, schedule: Q04DX003 (ip), vehicle: Klucel (hydroxypropylcellulose) (HPC)
[2] = dose: 200.0 mg/kg/injection, schedule: Q04DX003 (ip), vehicle: Klucel (hydroxypropylcellulose) (HPC)
[3] = dose: 100.0 mg/kg/injection, schedule: Q01DX009 (ip), vehicle: saline with Tween-80
[4] = dose: 200.0 mg/kg/injection, schedule: Q01DX009 (ip), vehicle: saline with Tween-80

SMILES: COc1cc(N(C)C)c(OC)cc1C=O
- T/C (dose: 50.0 mg/kg/injection, schedule: Q01DX009 (ip), vehicle: Klucel (hydroxypropylcellulose) (HPC)): 100 % of control
- T/C (dose: 100.0 mg/kg/injection, schedule: Q01DX009 (ip), vehicle: Klucel (hydroxypropylcellulose) (HPC)): 90 % of control
- T/C [1]: 95 % of control
- T/C (dose: 200.0 mg/kg/injection, schedule: Q01DX009 (ip), vehicle: Klucel (hydroxypropylcellulose) (HPC)): 109 % of control
- T/C [2]: 95 % of control
- T/C (dose: 400.0 mg/kg/injection, schedule: Q04DX003 (ip), vehicle: Klucel (hydroxypropylcellulose) (HPC)): 100 % of control

SMILES: Nc1ncnc2c1ncn2C1OC(COP(=O)(O)O)C(O)C1O (configuration not stated)
- T/C (dose: 18.8 mg/kg/injection, schedule: Q03HX016 (ip), vehicle: saline): 121 % of control
- T/C (dose: 100.0 mg/kg/injection, schedule: Q03HX016 (ip), vehicle: saline): 157 % of control
- T/C (dose: 100.0 mg/kg/injection, schedule: Q03HX024 (ip), vehicle: saline): 151 % of control
- T/C (dose: 150.0 mg/kg/injection, schedule: Q03HX016 (ip), vehicle: saline): 169 % of control
- T/C (dose: 150.0 mg/kg/injection, schedule: Q03HX024 (ip), vehicle: saline): 178 % of control

SMILES: CC1=CC(c2ccc3c(c2)OCO3)c2c(c3ccccc3oc2=O)O1 (configuration not stated)
- T/C (dose: 12.5 mg/kg/injection, schedule: Q01DX009 (ip), vehicle: water): 107 % of control
- T/C (dose: 100.0 mg/kg/injection, schedule: Q04DX003 (ip), vehicle: water): 104 % of control
- T/C (dose: 200.0 mg/kg/injection, schedule: Q04DX003 (ip), vehicle: water): 98 % of control
- T/C (dose: 400.0 mg/kg/injection, schedule: Q04DX003 (ip), vehicle: water): 90 % of control

SMILES: CCC(C)(C)c1ccc(OCCOS(=O)(=O)c2ccc(C)cc2)cc1
- T/C (dose: 12.5 mg/kg/injection, schedule: Q04DX003 (ip), vehicle: saline): 95 % of control
- T/C (dose: 25.0 mg/kg/injection, schedule: Q04DX003 (ip), vehicle: saline): 100 % of control
- T/C (dose: 50.0 mg/kg/injection, schedule: Q04DX003 (ip), vehicle: saline): 91 % of control

SMILES: c1ccc(SCC2c3ccccc3Nc3ccccc32)cc1
- T/C (dose: 100.0 mg/kg/injection, schedule: Q01DX001 (ip), vehicle: saline with Tween-80): 109 % of control
- T/C (dose: 200.0 mg/kg/injection, schedule: Q01DX001 (ip), vehicle: saline with Tween-80): 114 % of control
- T/C (dose: 400.0 mg/kg/injection, schedule: Q01DX001 (ip), vehicle: saline with Tween-80): 109 % of control

SMILES: COc1cccc(CCNC(=O)CCN2C(=O)c3ccccc3C2=O)c1
- T/C [3]: 95 % of control
- T/C [4]: 109 % of control
- T/C (dose: 400.0 mg/kg/injection, schedule: Q01DX009 (ip), vehicle: saline with Tween-80): 100 % of control

SMILES: COc1cc2cc(c1Cl)NC(=O)CC(OC(=O)C(C)N(C)C(=O)C1(C)CC1C)C1(C)OC1C(C)C1CC(O)(NC(=O)O1)C(OC)C=C/C=C(\C)C2 (configuration not stated)
- T/C (dose: 0.1 micrograms/kg/injection, schedule: Q01DX009 (ip), vehicle: saline + alcohol): 115 % of control
- T/C (dose: 0.2 micrograms/kg/injection, schedule: Q01DX009 (ip), vehicle: saline + alcohol): 165 % of control
- T/C (dose: 0.4 micrograms/kg/injection, schedule: Q01DX009 (ip), vehicle: saline + alcohol): 165 % of control
- T/C (dose: 0.8 micrograms/kg/injection, schedule: Q01DX009 (ip), vehicle: saline + alcohol): 155 % of control
- T/C (dose: 1.6 micrograms/kg/injection, schedule: Q01DX009 (ip), vehicle: saline + alcohol): 167 % of control and 175 % of control
- T/C (dose: 3.1 micrograms/kg/injection, schedule: Q01DX009 (ip), vehicle: saline + alcohol): 184 % of control and 190 % of control
- T/C (dose: 6.2 micrograms/kg/injection, schedule: Q01DX009 (ip), vehicle: saline + alcohol): 233 % of control and 300 % of control
- T/C (dose: 12.5 micrograms/kg/injection, schedule: Q01DX009 (ip), vehicle: saline + alcohol): 184 % of control and 200 % of control
- T/C (dose: 25.0 micrograms/kg/injection, schedule: Q01DX009 (ip), vehicle: saline + alcohol): 87 % of control and 90 % of control

SMILES: O=c1c2cc3nc4ccccn4c(=O)c3cc2nc2ccccn12
- T/C (dose: 50.0 mg/kg/injection, schedule: Q01DX009 (ip), vehicle: saline with Tween-80): 91 % of control
- T/C [3]: 86 % of control
- T/C [4]: 91 % of control

SMILES: CCOC(=O)C(C1=NC(C)(C)CC(C)O1)C(C[N+](=O)[O-])c1ccccc1 (configuration not stated)
- T/C (dose: 50.0 mg/kg/injection, schedule: Q01DX001 (ip), vehicle: saline sonified): 100 % of control
- T/C (dose: 100.0 mg/kg/injection, schedule: Q01DX001 (ip), vehicle: saline sonified): 100 % of control
- T/C (dose: 200.0 mg/kg/injection, schedule: Q01DX001 (ip), vehicle: saline sonified): 100 % of control

SMILES: CCC(C)c1ccccc1OC(=O)Nc1ccc(OC)cc1 (configuration not stated)
- T/C (dose: 50.0 mg/kg/injection, schedule: Q04DX003 (ip), vehicle: Klucel (hydroxypropylcellulose) (HPC)): 95 % of control
- T/C [1]: 100 % of control
- T/C [2]: 100 % of control
